Eight compounds from BindingDB's records for doi:10.3109/14756366.2010.504674 (University of Bonn, 2011) can be followed below.

Structures are written as SMILES. pIC50, pKi: −log10 of the molar value.

Assay in all cases: Cholinesterase Inhibition Assay
What all share (details): pH 7.3; 25 °C

The target of test [1] is Cholinesterase (Homo sapiens, UniProt P06276). The method, then:
(§1) Cholinesterase inhibition was assayed spectrophotometrically at 412 nm at 25°C [Pietsch et al., J. Med. Chem., 48:8270-8288; Ellman et al., Biochem. Pharmacol., 7:88-95]. Product formation was monitored over 5 min. Assay buffer was 100 mM sodium phosphate, 100 mM NaCl, pH 7.3. Enzyme stock solutions were prepared with assay buffer in the following concentrations ∼ 100 U/mL (EeAChE),∼ 3 U/mL (hAChE), ∼ 10 U/mL (hBChE), and were kept at 0°C. Appropriate dilutions of the EeAChE (1:30) and hBChE (1:10) solutions were done immediatelybefore starting the measurements. Solutions of ATCh (5, 10, 15, or 20 mM), BTCh (10 mM), and DTNB (7 mM) were prepared in assay buffer and kept at 0°C. Stock solutions of the inhibitors were prepared in acetonitrile. EeAChE was assayed as follows. Into a cuvette containing 830 μL assay buffer, 50 μL of the DTNB solution, 50 μL acetonitrile, 10 μL of an inhibitor solution, and 10 μL of an enzyme solution were added and thoroughly mixed. After incubation for 15 minat 25°C, the reaction was initiated by adding 50 μL of the ATCh solution. The following final concentration were used, ∼ 0.033 U/mL of EeAChE, 250, 500, 750, or 1000 μM of ATCh, 350 μM of DTNB, 6% acetonitrile. Similarly, hAChE (final concentration ∼ 0.03 U/mL) was assayed with 500 μM ATCh, and hBChE (finalconcentration ∼ 0.01 U/mL) with 500 μM BTCh. The rates of enzyme-catalyzed substrate hydrolysis were corrected by those of the non-enzymatic hydrolysis ofATCh or BTCh, respectively, as determined by using 10 μL of assay buffer, instead of the enzyme solution. A Km value of 550 μM19 for the substrate ATCh used in the EeAChE assay was taken for kinetic analyses.

The target of test [2] is Acetylcholinesterase (Electrophorus electricus, UniProt O42275). The method, then: as §1
The target of test [3] is Acetylcholinesterase (Homo sapiens, UniProt P22303). The method, then:
as §1

Sequence of Acetylcholinesterase (Homo sapiens, UniProt P22303) (P22303 whole entry): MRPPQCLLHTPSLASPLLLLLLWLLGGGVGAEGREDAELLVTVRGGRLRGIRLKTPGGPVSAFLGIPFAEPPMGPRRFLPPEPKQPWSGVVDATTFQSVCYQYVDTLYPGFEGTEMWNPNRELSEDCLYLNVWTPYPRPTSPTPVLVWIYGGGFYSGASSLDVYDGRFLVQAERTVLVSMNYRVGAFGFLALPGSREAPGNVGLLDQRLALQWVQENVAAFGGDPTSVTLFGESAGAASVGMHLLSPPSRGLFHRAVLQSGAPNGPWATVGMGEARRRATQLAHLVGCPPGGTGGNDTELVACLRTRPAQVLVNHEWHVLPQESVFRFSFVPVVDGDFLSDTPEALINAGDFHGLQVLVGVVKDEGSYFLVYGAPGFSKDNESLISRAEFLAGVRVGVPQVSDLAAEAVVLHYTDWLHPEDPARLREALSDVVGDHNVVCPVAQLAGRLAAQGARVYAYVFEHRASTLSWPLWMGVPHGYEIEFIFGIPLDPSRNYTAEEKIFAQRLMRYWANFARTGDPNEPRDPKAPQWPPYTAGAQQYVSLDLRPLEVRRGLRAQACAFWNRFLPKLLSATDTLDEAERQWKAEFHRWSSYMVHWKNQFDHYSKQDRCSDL
Sequence of Cholinesterase (P06276 whole entry): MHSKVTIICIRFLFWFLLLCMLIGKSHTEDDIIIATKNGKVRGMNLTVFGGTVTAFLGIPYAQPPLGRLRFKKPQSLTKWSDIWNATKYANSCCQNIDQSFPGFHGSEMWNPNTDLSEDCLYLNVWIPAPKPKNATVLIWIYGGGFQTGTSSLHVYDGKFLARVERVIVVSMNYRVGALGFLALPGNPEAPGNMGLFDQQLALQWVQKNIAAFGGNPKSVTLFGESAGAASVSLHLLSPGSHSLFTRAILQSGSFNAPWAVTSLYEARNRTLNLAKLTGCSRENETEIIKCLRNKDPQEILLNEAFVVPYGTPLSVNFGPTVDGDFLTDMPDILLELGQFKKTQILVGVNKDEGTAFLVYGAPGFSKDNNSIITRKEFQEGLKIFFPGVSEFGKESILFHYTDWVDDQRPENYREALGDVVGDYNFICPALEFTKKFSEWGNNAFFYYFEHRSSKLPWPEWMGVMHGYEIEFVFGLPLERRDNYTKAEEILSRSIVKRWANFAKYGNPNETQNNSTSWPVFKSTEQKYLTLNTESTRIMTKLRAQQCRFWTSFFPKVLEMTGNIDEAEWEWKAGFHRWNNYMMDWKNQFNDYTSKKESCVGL
Sequence of Acetylcholinesterase (Electrophorus electricus, UniProt O42275) (O42275 whole entry): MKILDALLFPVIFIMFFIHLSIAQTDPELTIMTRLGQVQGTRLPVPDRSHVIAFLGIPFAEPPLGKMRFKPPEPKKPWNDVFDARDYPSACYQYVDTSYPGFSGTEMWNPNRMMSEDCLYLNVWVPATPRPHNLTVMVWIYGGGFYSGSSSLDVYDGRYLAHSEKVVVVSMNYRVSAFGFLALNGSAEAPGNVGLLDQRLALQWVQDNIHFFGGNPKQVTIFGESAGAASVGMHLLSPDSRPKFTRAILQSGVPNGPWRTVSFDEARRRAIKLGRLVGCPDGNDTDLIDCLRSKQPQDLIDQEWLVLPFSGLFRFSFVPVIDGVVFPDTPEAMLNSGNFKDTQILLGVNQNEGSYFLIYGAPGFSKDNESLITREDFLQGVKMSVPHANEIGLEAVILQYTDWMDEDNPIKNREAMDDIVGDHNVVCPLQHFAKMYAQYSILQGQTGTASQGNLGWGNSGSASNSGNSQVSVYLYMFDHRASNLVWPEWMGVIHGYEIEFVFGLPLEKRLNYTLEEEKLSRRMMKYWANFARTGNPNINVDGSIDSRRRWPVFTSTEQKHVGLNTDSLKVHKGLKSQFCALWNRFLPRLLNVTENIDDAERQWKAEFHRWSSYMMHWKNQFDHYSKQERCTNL

As for `O=C1c2c(sc3c2CCN(Cc2ccccc2)C3)NC2=NCCN12` [8-Benzyl-2,3,6,7,8,9-hexahydro-imidazo[1,2-a]pyrido[4′,3′:4,5]thieno[2,3-d]pyrimidin-5(11H)-one (9)], the pIC50 was less than 3.70 in test [1], 5.87 in test [2] and 4.85 in test [3]. Moreover, the pKi in test [2] was 5.81.
In the case of `C1=Nc2sc3c(c2C2=NCCN12)CCN(Cc1ccccc1)C3` [9-Benzyl-2,3,8,9,10,11-hexahydro-imidazo[1,2-c]pyrido[4′,3′:4,5]thieno[3,2-e]pyrimidine (13)], the pIC50 in test [1] is 4.05; in test [2], 5.51; in test [3], 4.66. The pKi in test [2] is 5.63.
On the same counts, the results for `O=C1c2c(sc3c2CCN(Cc2ccccc2)C3)NC2=NCCCN12` [9-Benzyl-2,3,4,7,8,9,10,12-octahydro-6H-pyrido[4′,3′:4,5]thieno[2,3-d]pyrimido[1,2-a]pyrimidin-6-one (10)] are 4.29, 5.82, 5.24 and 5.68.
In the case of `C1=Nc2sc3c(c2C2=NCCN12)CCCC3` [2,3,8,9,10,11-Hexahydro-benzothieno[3,2-e]imidazo[1,2-c]pyrimidine (11)], the pIC50 is 4.06 in test [1], 5.76 in test [2] and 4.25 in test [3]. In addition, the pKi in test [2] is 5.88.
With `O=C1c2c(sc3c2CCCC3)NC2=NCCCN12` [2,3,4,7,8,9,10,12-Octahydro-6H-benzothieno[2,3-d]pyrimido[1,2-a]pyrimidin-6-one (8)], the pIC50 in test [1] was less than 3.70; in test [2], less than 4.12; in test [3] it was less than 3.70.
Regarding `C1=Nc2sc3c(c2C2=NCCCN12)CCCC3` [3,4,9,10,11,12-Hexahydro-2H-benzothieno[3,2-e]pyrimido[1,2-c]pyrimidine (12)], the pIC50 is 3.88 in test [1], 5.65 in test [2] and 4.69 in test [3]. Besides, in test [2], the pKi was 5.72.
On to `O=C1c2c(sc3c2CCCC3)NC2=NCCN12` [2,3,6,7,8,9-Hexahydro-benzothieno[2,3-d]-imidazo[1,2-a]pyrimidin-5(11H)-one (7)], for which the pIC50 in test [1] is less than 3.70; in test [2], less than 4.12; in test [3] it was less than 3.70.
Regarding `C1=Nc2sc3c(c2C2=NCCCN12)CCN(Cc1ccccc1)C3` [10-Benzyl-3,4,9,10,11,12-hexahydro-2H-pyrido[4′,3′:4,5]thieno[3,2-e]pyrimido[1,2-c]pyrimidin (14)], the figures for the pIC50 in test [1], in test [2] and in test [3] were 3.92, 5.76 and 4.20, respectively. Further, the negative logarithm of the Ki (pKi) in test [2] was 5.82.
